# Test results taken from patent US11981686B2, “Urea compound having substituent” (DAIICHI SANKYO COMPANY, LIMITED, priority 2019, dated 2024).
# Target: SIRT6 enzyme (Homo sapiens, UniProt Q8N6T7)
# Assay: Measurement of deacetylation activity (SIRT6, AlphaLISA, H3K9(Ac) peptide)
# Assay type: biochemical
# Conditions: SIRT6 25 ng/mL, H3K9(Ac) biotin peptide 2 nM, NAD 10 μM, room temperature 30 minutes, duplicate
# Summary of the method: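 Activation read as EC150, the concentration giving 150% activity relative to enzyme/no-enzyme DMSO controls, via variable-slope fit. Deacetylation of 2 nM biotinylated H3K9(Ac) peptide with 10 μM NAD+ by 25 ng/mL SIRT6 ran 30 min at room temperature, pH 8.0, then AlphaLISA detection of unmodified H3K9.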
# Chain of SIRT6 enzyme (Q8N6T7 whole entry, species assumed): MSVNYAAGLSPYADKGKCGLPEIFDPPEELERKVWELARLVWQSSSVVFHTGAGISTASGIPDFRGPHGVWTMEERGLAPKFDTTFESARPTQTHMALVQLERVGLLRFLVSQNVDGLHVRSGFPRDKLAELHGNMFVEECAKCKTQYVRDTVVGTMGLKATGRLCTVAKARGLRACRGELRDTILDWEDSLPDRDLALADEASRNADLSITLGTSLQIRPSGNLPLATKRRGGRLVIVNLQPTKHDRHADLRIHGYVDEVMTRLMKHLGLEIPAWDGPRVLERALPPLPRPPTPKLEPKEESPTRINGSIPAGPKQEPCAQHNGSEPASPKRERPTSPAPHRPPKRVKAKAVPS
row,Structure (SMILES),EC150 (the concentration of the compound showing a relative enzyme activity of 150%) [μm]
1,"Cc1cc2nc(N3[C@@H]4COC[C@H]3c3sc(NC(=O)NCC(C)(C)O)nc3C4)oc2cc1C#N [Example 51, N-[(4S,8S)-10-(6-cyano-5-methyl-1,3-benzoxazol-2-yl)-4,7,8,9-tetrahydro-5H-4,8-epiminooxocino[5,4-d][1,3]thiazol-2-yl]-N′-(2-hydroxy-2-methylpropyl)urea]",0.47
2,"CCOc1ccc2oc(N3[C@@H]4COC[C@H]3c3sc(NC(=O)N[C@H](C)CO)nc3C4)nc2c1 [Example 52, N-[(4S,8S)-10-(5-ethoxy-1,3-benzoxazol-2-yl)-4,7,8,9-tetrahydro-5H-4,8-epiminooxocino[5,4-d][1,3]thiazol-2-yl]-N′-[(2R)-1-hydroxypropan-2-yl]urea]",1.9
3,"CC(C)(O)CNC(=O)Nc1nc2c(s1)[C@@H]1COC[C@H](C2)N1c1nc2cc(C(F)F)ccc2o1 [Example 53, N-{(4S,8S)-10-[5-(difluoromethyl)-1,3-benzoxazol-2-yl]-4,7,8,9-tetrahydro-5H-4,8-epiminooxocino[5,4-d][1,3]thiazol-2-yl}-N′-(2-hydroxy-2-methylpropyl)urea]",0.29
4,"O=C(Nc1nc2c(s1)[C@@H]1COC[C@H](C2)N1c1nc2cc(OC(F)(F)F)ccc2o1)N[C@H]1C[C@H](O)C1 [Example 54, N-[(1r,3S)-3-hydroxycyclobutyl]-N′-[(4S,8S)-10-(5-trifluoromethoxy-1,3-benzoxazol-2-yl)-4,7,8,9-tetrahydro-5H-4,8-epiminooxocino[5,4-d][1,3]thiazol-2-yl]urea]",0.48
5,"CC(C)(O)CNC(=O)Nc1nc2c(s1)[C@@H]1COC[C@H](C2)N1c1nc2cc(C#N)c(F)cc2o1 [Example 55, N-[(4S,8S)-10-(5-cyano-6-fluoro-1,3-benzoxazol-2-yl)-4,7,8,9-tetrahydro-5H-4,8-epiminooxocino[5,4-d][1,3]thiazol-2-yl]-N′-(2-hydroxy-2-methylpropyl)urea]",2.3
6,"C[C@H](CO)NC(=O)Nc1nc2c(s1)[C@@H]1COC[C@H](C2)N1c1nc2cc(C(F)F)ccc2o1 [Example 56, N-{(4S,8S)-10-[5-(difluoromethyl)-1,3-benzoxazol-2-yl]-4,7,8,9-tetrahydro-5H-4,8-epiminooxocino[5,4-d][1,3]thiazol-2-yl}-N′-[(2R)-1-hydroxypropan-2-yl]urea]",0.19
7,"CC(C)(O)CNC(=O)Nc1nc2c(s1)[C@@H]1COC[C@H](C2)N1c1nc2cc(OCF)ccc2o1 [Example 57, N-{(4S,8S)-10-[5-(fluoromethoxy)-1,3-benzoxazol-2-yl]-4,7,8,9-tetrahydro-5H-4,8-epiminooxocino[5,4-d][1,3]thiazol-2-yl}-N′-(2-hydroxy-2-methylpropyl)urea]",0.93
8,"COc1ccc2oc(N3[C@@H]4COC[C@H]3c3sc(NC(=O)NC(C)(C)CO)nc3C4)nc2c1 [Example 58, N-(1-hydroxy-2-methylpropan-2-yl)-N′-[(4S,8S)-10-(5-methoxy-1,3-benzoxazol-2-yl)-4,7,8,9-tetrahydro-5H-4,8-epiminooxocino[5,4-d][1,3]thiazol-2-yl]urea]",2.4
9,"C[C@H](CO)NC(=O)Nc1nc2c(s1)[C@@H]1COC[C@H](C2)N1c1nc2cc(Cl)ccc2o1 [Example 59, N-[(4S,8S)-10-(5-chloro-1,3-benzoxazol-2-yl)-4,7,8,9-tetrahydro-5H-4,8-epiminooxocino[5,4-d][1,3]thiazol-2-yl]-N′-[(2R)-1-hydroxypropan-2-yl]urea]",0.44
10,"[2H]C([2H])([2H])Oc1ccc2oc(N3[C@@H]4COC[C@H]3c3sc(NC(=O)NCC(C)(C)O)nc3C4)nc2c1 [Example 60, N-(2-hydroxy-2-methylpropyl)-N′-[(4S,8S)-10-{5-[(^2H3)methyloxy]-1,3-benzoxazol-2-yl}-4,7,8,9-tetrahydro-5H-4,8-epiminooxocino[5,4-d][1,3]thiazol-2-yl]urea]",1.7
11,"O=C(Nc1nc2c(s1)[C@@H]1COC[C@H](C2)N1c1cc(-c2ccc(F)cc2)on1)N[C@H]1CC[C@@H](O)CC1 [Example 61, N-{(4S,8S)-10-[5-(4-fluorophenyl)-1,2-oxazol-3-yl]-4,7,8,9-tetrahydro-5H-4,8-epiminooxocino[5,4-d][1,3]thiazol-2-yl}-N′-[(1s,4s)-4-hydroxycyclohexyl]urea]",1.9
12,"COc1cccc(-c2cc(N3[C@@H]4COC[C@H]3c3sc(NC(=O)NC5CCOCC5)nc3C4)no2)n1 [Example 62, N-{(4S,8S)-10-[5-(6-methoxypyridin-2-yl)-1,2-oxazol-3-yl]-4,7,8,9-tetrahydro-5H-4,8-epiminooxocino[5,4-d][1,3]thiazol-2-yl}-N′-oxan-4-ylurea]",2.6
13,"CC(C)(O)CNC(=O)Nc1nc2c(s1)[C@@H]1COC[C@H](C2)N1c1cc(-c2ccc(F)cc2)on1 [Example 63, N-{(4S,8S)-10-[5-(4-fluorophenyl)-1,2-oxazol-3-yl]-4,7,8,9-tetrahydro-5H-4,8-epiminooxocino[5,4-d][1,3]thiazol-2-yl}-N′-(2-hydroxy-2-methylpropyl)urea]",2.3
14,"CNC(=O)Nc1nc2c(s1)C1CN(C(=O)OC)CC(C2)N1c1cc(-c2ccc(F)cc2)on1 (centres unmarked) [Example 64, Methyl 10-[5-(4-fluorophenyl)-1,2-oxazol-3-yl]-2-[(methylcarbamoyl)amino]-4,7,8,9-tetrahydro-4,8-epimino[1,3]thiazolo[5,4-d]azocine-6(5H)-carboxylate]",0.49
15,"C[C@@H](O)CNC(=O)Nc1nc2c(s1)[C@@H]1COC[C@H](C2)N1c1cc(-c2ccc(F)cc2)on1 [Example 65, N-{(4S,8S)-10-[5-(4-fluorophenyl)-1,2-oxazol-3-yl]-4,7,8,9-tetrahydro-5H-4,8-epiminooxocino[5,4-d][1,3]thiazol-2-yl}-N′-[(2R)-2-hydroxypropyl]urea]",2.1
16,"C[C@H](CO)NC(=O)Nc1nc2c(s1)[C@@H]1COC[C@H](C2)N1c1ncc(-c2cccc(OC(F)F)n2)o1 [Example 66, N-[(4S,8S)-10-{5-[6-(difluoromethoxy)pyridin-2-yl]-1,3-oxazol-2-yl}-4,7,8,9-tetrahydro-5H-4,8-epiminooxocino[5,4-d][1,3]thiazol-2-yl]-N′-[(2R)-1-hydroxypropan-2-yl]urea]",0.39
17,"COc1cccc(-c2cnc(N3[C@@H]4COC[C@H]3c3sc(NC(=O)N[C@H](C)CO)nc3C4)o2)n1 [Example 67, N-[(2R)-1-hydroxypropan-2-yl]-N′-{(4S,8S)-10-[5-(6-methoxypyridin-2-yl)-1,3-oxazol-2-yl]-4,7,8,9-tetrahydro-5H-4,8-epiminooxocino[5,4-d][1,3]thiazol-2-yl}urea]",0.75
18,"CCOc1cccc(-c2cnc(N3[C@@H]4COC[C@H]3c3sc(NC(=O)N[C@H](C)CO)nc3C4)o2)n1 [Example 68, N-{(4S,8S)-10-[5-(6-ethoxypyridin-2-yl)-1,3-oxazol-2-yl]-4,7,8,9-tetrahydro-5H-4,8-epiminooxocino[5,4-d][1,3]thiazol-2-yl}-N′-[(2R)-1-hydroxypropan-2-yl]urea]",1
19,"CC(C)(CO)NC(=O)Nc1nc2c(s1)[C@@H]1COC[C@H](C2)N1c1ncc(-c2cccc(C(F)F)c2)o1 [Example 69, N-[(4S,8S)-10-{5-[3-(difluoromethyl)phenyl]-1,3-oxazol-2-yl}-4,7,8,9-tetrahydro-5H-4,8-epiminooxocino[5,4-d][1,3]thiazol-2-yl]-N′-(1-hydroxy-2-methylpropan-2-yl)urea]",0.59
20,"C[C@H](CO)NC(=O)Nc1nc2c(s1)[C@@H]1COC[C@H](C2)N1c1ncc(-c2cccc(OC(F)F)c2)o1 [Example 70, N-[(4S,8S)-10-{5-[3-(difluoromethoxy)phenyl]-1,3-oxazol-2-yl}-4,7,8,9-tetrahydro-5H-4,8-epiminooxocino[5,4-d][1,3]thiazol-2-yl]-N′-[(2R)-1-hydroxypropan-2-yl]urea]",0.45
21,"C[C@H](CO)NC(=O)Nc1nc2c(s1)[C@@H]1COC[C@H](C2)N1c1ncc(-c2cccc(C(F)F)c2)o1 [Example 71, N-[(4S,8S)-10-{5-[3-(difluoromethyl)phenyl]-1,3-oxazol-2-yl}-4,7,8,9-tetrahydro-5H-4,8-epiminooxocino[5,4-d][1,3]thiazol-2-yl]-N′-[(2R)-1-hydroxypropan-2-yl]urea]",0.34
22,"C[C@@H](O)CNC(=O)Nc1nc2c(s1)[C@@H]1COC[C@H](C2)N1c1ncc(-c2cccc(C(F)F)c2)o1 [Example 72, N-[(4S,8S)-10-{5-[3-(difluoromethyl)phenyl]-1,3-oxazol-2-yl}-4,7,8,9-tetrahydro-5H-4,8-epiminooxocino[5,4-d][1,3]thiazol-2-yl]-N′-[(2R)-2-hydroxypropyl]urea]",0.36
23,"O=C(Nc1nc2c(s1)[C@@H]1COC[C@H](C2)N1c1ncc(-c2cccc(OC(F)F)c2)o1)N[C@@H]1CCOC1 [Example 73, N-[(4S,8S)-10-{5-[3-(difluoromethoxy)phenyl]-1,3-oxazol-2-yl}-4,7,8,9-tetrahydro-5H-4,8-epiminooxocino[5,4-d][1,3]thiazol-2-yl]-N′-[(3R)-oxolan-3-yl]urea]",0.4
